Experimental data: patent publication US7618990B2, “Oxazolidone derivatives as PR modulators” (Wyeth, priority 2006, dated 2009)

Key:
[1] = target: T1, progesterone receptor (PR) (Homo sapiens, UniProt P06401); assay: Progesterone receptor whole cell competition binding assay using T47D cells; conditions: intact T47D cells, 3 nM 3H-progesterone, 3 h at 37° C.
T1 construct: in live, intact (whole) cells using the human breast carcinoma T47D cell line; endogenous in cells; host or cells: T47D human breast carcinoma cells
T1 sequence (P06401 1-933): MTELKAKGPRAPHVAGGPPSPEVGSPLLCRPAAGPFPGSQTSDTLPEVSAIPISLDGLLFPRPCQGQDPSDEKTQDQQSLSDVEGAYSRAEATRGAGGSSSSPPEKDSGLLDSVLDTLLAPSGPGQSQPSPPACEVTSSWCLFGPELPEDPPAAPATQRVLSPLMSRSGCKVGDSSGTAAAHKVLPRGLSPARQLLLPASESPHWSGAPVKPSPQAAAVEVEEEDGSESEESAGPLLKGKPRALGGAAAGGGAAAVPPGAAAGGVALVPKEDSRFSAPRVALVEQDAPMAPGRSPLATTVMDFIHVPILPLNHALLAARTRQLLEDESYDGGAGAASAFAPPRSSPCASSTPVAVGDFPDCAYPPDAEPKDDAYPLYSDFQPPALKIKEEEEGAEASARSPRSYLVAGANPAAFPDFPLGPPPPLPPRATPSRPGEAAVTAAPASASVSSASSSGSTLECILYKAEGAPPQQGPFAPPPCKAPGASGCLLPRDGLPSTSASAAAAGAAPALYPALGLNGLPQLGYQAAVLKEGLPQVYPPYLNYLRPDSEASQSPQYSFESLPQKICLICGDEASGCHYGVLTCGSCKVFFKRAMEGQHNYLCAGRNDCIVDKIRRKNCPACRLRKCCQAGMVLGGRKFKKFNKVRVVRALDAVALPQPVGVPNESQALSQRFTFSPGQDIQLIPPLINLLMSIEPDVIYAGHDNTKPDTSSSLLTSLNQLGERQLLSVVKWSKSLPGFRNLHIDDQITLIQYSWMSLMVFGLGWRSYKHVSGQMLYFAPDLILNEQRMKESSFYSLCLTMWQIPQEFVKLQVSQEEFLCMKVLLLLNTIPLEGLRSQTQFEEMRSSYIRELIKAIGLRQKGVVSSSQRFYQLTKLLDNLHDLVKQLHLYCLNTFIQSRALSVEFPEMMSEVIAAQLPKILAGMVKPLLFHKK
Protocol: (2) Progesterone Receptor Whole Cell Competition Binding Assay Using T47D Cells
PURPOSE: To evaluate the progesterone receptor (PR) binding activity of progestins or antiprogestins in live, intact (whole) cells using the human breast carcinoma T47D cell line and ^3H-progesterone as the labeled ligand.
Culture Medium: • 5% RC: phenol red free DMEM:F12 (1:1) (GIBCO, BRL) supplemented with 5% (v/v) charcoal stripped fetal bovine serum (not heat-inactivated), 100 U/mL penicillin, 100 μg/mL streptomycin, and 2 mM the GlutaMax™ reagent (GIBCO, BRL). • 10% RC: Same as above supplemented with 10% (v/v) FBS. • ^3H-Progesterone: Perkin Elmer Life Science, cat# NET-381 (typically around 102 Ci/mmol)
T47D cells were maintained in 10% RC media at 37° C. in a 5% CO2/humidified atmosphere and were split twice weekly for proper response. Cells were plated in 10% RC the day before binding assay at 50,000 cells per well in the white, clear bottom plates purchased through VWR or Perkin Elmer.
Cells plated the day prior to the assay in white clear bottom plates were used. A master compound plate was set up containing control and test compounds at 20× final desired concentration for the competition binding. A typical dose range of 20× concentrations were (in nM); 200,000; 20,000; 6000; 2000; 600; 200; 20; and 2. Final concentrations were (in nM); 10,000; 1000; 300; 100; 30; 10; 1; 0.1. Control compounds were typically run 10-fold lower than this and include a 0, or vehicle, control well. A stock of 60 nM ^3H-progesterone (20×) were also prepared at a volume needed of 10 μL per well.
Media on cells were replaced with 180 μL of 5% RC. Ten microliters (10 μL) of 60 nM ^3H-progesterone (for final concentration of 3 nM) was added immediately, followed by 10 μL of 20× test or control compounds. Compounds were incubated for 3 h at 37° C. (A time course study found no difference between 2 and 4 h incubation.)
Following incubation, media was carefully removed and cells were washed 3× with 200 μL 5% RC each wash. Fifty microliters of liquid scintillation cocktail was added and the plates were shaken vigorously for a minimum of 15 min. Plates were read on the Wallac Microbeta® 1450 plate reader.
Square root-transformed data were used for analysis of variance and calculation of IC50. SAS software (SAS Institute, Inc.) was used for all the statistical analysis.
Progesterone was used as a reference progestin and RU486 as a reference antiprogestin.

[2] = test system: alkaline phosphatase activity in T47D cells; assay: Effects of progestins and antiprogestins on alkaline phosphatase activity in T47D cells (antagonist mode); assay type: cell-based; conditions: Homo sapiens, in the presence of 1 nM progesterone, 24 h, read-out: T47D Alkaline Phosphatase Activity IC50 (nM) or % inhibition

Row | SMILES | Ki [1] [nM] | melting point [°C] | IC50 [2] [nM]
1 | O=C1NCCN1c1nc(-c2ccc(Br)cc2)cs1 [Example 75, 1-[4-(4-Bromophenyl)-1,3-thiazol-2-yl]imidazolidin-2-one] | 2080 | 230 to 233 | 1070
2 | CCCC1COC(=O)N1c1nc(-c2ccc(C#N)cc2)cs1 (stereo not drawn) [Example 40, 4-[2-(2-Oxo-4-propyl-1,3-oxazolidin-3-yl)-1,3-thiazol-4-yl]benzonitrile] | 42 | 132 to 134 | 9.9
3 | CC(C)C1COC(=O)N1c1nc(-c2ccc(Br)cc2)cs1 (stereo not drawn) [Example 38, 3-[4-(4-Bromophenyl)-1,3-thiazol-2-yl]-4-isopropyl-1,3-oxazolidin-2-one] | 108 | 174 to 176 | 75.6
4 | C[C@@H]1COC(=O)N1c1nc(-c2ccc(Br)cc2)cs1 [Example 1, (4R)-3-[4-(4-Bromophenyl)-1,3-thiazol-2-yl]-4-methyl-1,3-oxazolidin-2-one] | 87.6 | 197 to 199 | 22.1
5 | CC[C@@H]1COC(=O)N1c1nc(-c2ccc(Br)cc2)cs1 [Example 9, (4R)-3-[4-(4-Bromophenyl)-1,3-thiazol-2-yl]-4-ethyl-1,3-oxazolidin-2-one] | 62.1 | 134 to 135 | 32.9
6 | N#Cc1ccc(-c2csc(N3C(=O)OC[C@@H]3C(F)(F)F)n2)cc1 [Example 66, 4-{2-[(4R)-2-oxo-4-(trifluoromethyl)-1,3-oxazolidin-3-yl]-1,3-thiazol-4-yl}benzonitrile] | 212 | 208 to 209 | 482
7 | C[C@@H]1COC(=O)N1c1nc(-c2ccc(C#N)cc2)cs1 [Example 2, 4-{2-[(4R)-4-Methyl-2-oxo-1,3-oxazolidin-3-yl]-1,3-thiazol-4-yl}benzonitrile] | 43.4 | 227 to 228 | 14.6
8 | CC1(C)COC(=O)N1c1nc(-c2ccc(Br)cc2)cs1 [Example 5, 3-[4-(4-Bromophenyl)-1,3-thiazol-2-yl]-4,4-dimethyl-1,3-oxazolidin-2-one] | 38.2 | 165 to 167 | 6.4
9 | CC[C@@H]1COC(=O)N1c1nc(-c2ccc(C#N)cc2)cs1 [Example 10, 4-{2-[(4R)-4-Ethyl-2-oxo-1,3-oxazolidin-3-yl]-1,3-thiazol-4-yl}benzonitrile] | 23.3 | 153 to 157 | 12.8
10 | CC1COC(=O)N1c1nc(-c2ccc(C#N)cc2)cs1 (stereo not drawn) [Example 51, 4-[2-(4-Methyl-2-oxo-1,3-oxazolidin-3-yl)-1,3-thiazol-4-yl]benzonitrile] | 42.6 | 215 to 216 | 16.1
11 | CCC1CN(c2nc(-c3ccc(C#N)cc3)cs2)C(=O)O1 (stereo not drawn) [Example 42, 4-[2-(5-Ethyl-2-oxo-1,3-oxazolidin-3-yl)-1,3-thiazol-4-yl]benzonitrile] | 700 | 168 to 170 | 117
12 | O=C1OC[C@@H](CF)N1c1nc(-c2ccc(Br)cc2)cs1 [Example 73, (4S)-3-[4-(4-Bromophenyl)-1,3-thiazol-2-yl]-4-(fluoromethyl)-1,3-oxazolidin-2-one] | 31.5 | 148 to 150 | 21.4
13 | CC1COC(=O)N1c1nc(-c2ccc(Br)cc2)cs1 (stereo not drawn) [Example 50, 3-[4-(4-Bromophenyl)-1,3-thiazol-2-yl]-4-methyl-1,3-oxazolidin-2-one] | 36.6 | 189 to 190 | 17.7

Next, values leading:

Row | Ki [1] [nM] | melting point [°C] | IC50 [2] [nM] | SMILES
14 | 75.3 | 138 to 140 | 23 | CC[C@H]1COC(=O)N1c1nc(-c2ccc(Br)cc2)cs1 [Example 7, (4S)-3-[4-(4-Bromophenyl)-1,3-thiazol-2-yl]-4-ethyl-1,3-oxazolidin-2-one]
15 | 566 | 144 to 146 | 359 | CC(C)C[C@H]1COC(=O)N1c1nc(-c2ccc(Br)cc2)cs1 [Example 37, (4S)-3-[4-(4-Bromophenyl)-1,3-thiazol-2-yl]-4-isobutyl-1,3-oxazolidin-2-one]
16 | 16.1 | 177 to 178 | 4 | CC1(C)COC(=O)N1c1nc(-c2ccc(C#N)cc2)c(F)s1 [Example 58, 4-[2-(4,4-dimethyl-2-oxo-1,3-oxazolidin-3-yl)-5-fluoro-1,3-thiazol-4-yl]benzonitrile]
17 | 41.2 | 132 to 135 | 28.1 | CCC[C@H]1COC(=O)N1c1nc(-c2ccc(C#N)cc2)cs1 [Example 23, 4-{2-[(4S)-2-oxo-4-propyl-1,3-oxazolidin-3-yl]-1,3-thiazol-4-yl}benzonitrile]
18 | 529 | 138 to 139 | 95.3 | O=C1OCC2(CCCC2)N1c1nc(-c2ccc(Br)cc2)cs1 [Example 34, 1-[4-(4-Bromophenyl)-1,3-thiazol-2-yl]-3-oxa-1-azaspiro[4.4]nonan-2-one]
19 | 128 | 134 to 137 | 23.3 | CCCCC1COC(=O)N1c1nc(-c2ccc(C#N)cc2)cs1 (stereo not drawn) [Example 48, 4-[2-(4-Butyl-2-oxo-1,3-oxazolidin-3-yl)-1,3-thiazol-4-yl]benzonitrile]
20 | 45.1 | 195 to 196 | 19.8 | N#Cc1ccc(-c2csc(N3C(=O)OC[C@H]3CF)n2)cc1 [Example 74, 4-{2-[(4S)-4-(Fluoromethyl)-2-oxo-1,3-oxazolidin-3-yl]-1,3-thiazol-4-yl}benzonitrile]
21 | 234 | 154 to 156 | 291 | O=C1OCC(C(F)(F)F)N1c1nc(-c2ccc(Br)cc2)cs1 (stereo not drawn) [Example 64, 3-[4-(4-Bromophenyl)-1,3-thiazol-2-yl]-4-(trifluoromethyl)-1,3-oxazolidin-2-one]
